Source: patent US10526316B2, “Quinoxaline and pyridopyrazine derivatives as PI3Kβ inhibitors” (Janssen Pharmaceutica NV, priority 2015, dated 2020)
Where two headings read alike, the source gives them in different places.

Key:
PI3Kδ = target: T1, PI3Kδ (Homo sapiens, UniProt O00329); test: Enzyme binding assay (KINOMEscan, DiscoveRx); conditions: PIK3Cδ_h
T1 construct: purchased DiscoveRx Corporation, San Diego (contract service, KINOMEscan)
T1 sequence (O00329 1-1044): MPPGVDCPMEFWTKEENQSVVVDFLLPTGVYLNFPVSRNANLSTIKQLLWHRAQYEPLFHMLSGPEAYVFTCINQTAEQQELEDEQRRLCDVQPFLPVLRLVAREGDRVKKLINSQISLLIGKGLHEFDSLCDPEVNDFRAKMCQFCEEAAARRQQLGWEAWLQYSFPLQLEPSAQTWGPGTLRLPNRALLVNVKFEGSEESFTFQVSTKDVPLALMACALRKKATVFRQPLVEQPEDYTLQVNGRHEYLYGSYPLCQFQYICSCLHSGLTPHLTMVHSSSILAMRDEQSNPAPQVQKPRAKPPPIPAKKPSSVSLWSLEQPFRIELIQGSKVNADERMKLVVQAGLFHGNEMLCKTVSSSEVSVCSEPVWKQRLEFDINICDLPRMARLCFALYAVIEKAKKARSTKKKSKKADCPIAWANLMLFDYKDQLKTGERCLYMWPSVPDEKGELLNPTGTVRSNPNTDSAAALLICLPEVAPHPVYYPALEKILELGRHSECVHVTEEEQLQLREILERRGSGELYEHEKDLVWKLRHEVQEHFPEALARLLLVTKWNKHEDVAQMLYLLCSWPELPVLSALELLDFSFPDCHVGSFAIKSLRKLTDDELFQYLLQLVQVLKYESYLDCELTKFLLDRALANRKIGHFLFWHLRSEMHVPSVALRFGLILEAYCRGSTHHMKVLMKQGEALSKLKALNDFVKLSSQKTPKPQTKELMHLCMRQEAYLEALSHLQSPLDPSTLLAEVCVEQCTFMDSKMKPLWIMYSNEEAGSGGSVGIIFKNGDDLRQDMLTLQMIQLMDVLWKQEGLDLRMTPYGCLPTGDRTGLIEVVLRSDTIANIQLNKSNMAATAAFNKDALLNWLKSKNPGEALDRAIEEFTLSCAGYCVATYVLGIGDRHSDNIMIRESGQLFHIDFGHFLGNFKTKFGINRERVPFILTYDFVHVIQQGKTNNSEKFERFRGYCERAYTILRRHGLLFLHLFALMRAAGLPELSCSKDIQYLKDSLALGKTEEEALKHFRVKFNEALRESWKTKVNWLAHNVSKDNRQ
Method in brief: (§1)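 Uses KINOMEscan technology to determine binding affinity toward the kinase enzymes.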

PI3Kβ = target: T2, PI3Kβ (Homo sapiens, UniProt P42338); test: Enzyme binding assay (KINOMEscan, DiscoveRx); conditions: PIK3Cβ_h, read-out: Kd PIK3Cβ_h
T2 construct: purchased DiscoveRx Corporation, San Diego (contract service, KINOMEscan)
T2 sequence (P42338 whole entry): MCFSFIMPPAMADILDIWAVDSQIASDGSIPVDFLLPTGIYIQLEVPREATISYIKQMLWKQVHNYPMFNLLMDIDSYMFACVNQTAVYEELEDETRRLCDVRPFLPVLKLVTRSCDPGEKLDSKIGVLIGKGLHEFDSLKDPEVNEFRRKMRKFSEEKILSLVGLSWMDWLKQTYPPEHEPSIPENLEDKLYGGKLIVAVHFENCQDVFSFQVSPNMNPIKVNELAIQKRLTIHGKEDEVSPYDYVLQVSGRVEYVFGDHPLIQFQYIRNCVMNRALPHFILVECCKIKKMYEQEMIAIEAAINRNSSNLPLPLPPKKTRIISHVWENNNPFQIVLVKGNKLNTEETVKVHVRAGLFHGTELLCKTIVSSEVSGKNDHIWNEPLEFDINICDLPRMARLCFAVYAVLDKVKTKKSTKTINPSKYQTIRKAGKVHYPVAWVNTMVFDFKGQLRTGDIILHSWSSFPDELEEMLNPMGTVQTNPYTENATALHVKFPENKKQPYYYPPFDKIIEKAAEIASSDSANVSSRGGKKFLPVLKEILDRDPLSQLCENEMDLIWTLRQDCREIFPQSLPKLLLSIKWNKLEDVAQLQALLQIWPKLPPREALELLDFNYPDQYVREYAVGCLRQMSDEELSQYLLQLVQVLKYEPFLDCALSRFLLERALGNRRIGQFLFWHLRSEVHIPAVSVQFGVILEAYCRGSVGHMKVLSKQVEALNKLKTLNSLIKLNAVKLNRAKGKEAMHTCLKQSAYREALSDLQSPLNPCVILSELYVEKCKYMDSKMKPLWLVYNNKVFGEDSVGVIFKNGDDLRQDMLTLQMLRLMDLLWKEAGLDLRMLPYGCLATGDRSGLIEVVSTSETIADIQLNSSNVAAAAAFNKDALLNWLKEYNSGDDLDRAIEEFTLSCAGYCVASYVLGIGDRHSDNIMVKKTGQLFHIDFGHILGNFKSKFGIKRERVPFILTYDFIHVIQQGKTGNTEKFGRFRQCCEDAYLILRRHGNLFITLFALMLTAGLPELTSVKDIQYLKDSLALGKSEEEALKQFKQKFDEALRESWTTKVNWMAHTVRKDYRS
Method in brief: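 Using the KINOMEscan format, the enzyme binding affinity of each compound was determined. Each value is the inhibitor binding constant, Kd (nM).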

[1] = system: Akt phosphorylated at Ser473 in PC-3 cells; test: Cellular assay: phosphorylation of Akt at Ser473 in PC-3 cells (MSD ELISA); type: cell-based; conditions: PC-3 cells, 60 min compound incubation, MSD ELISA, read-out: IC50 pAkt_S473
Method in brief: (§2)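 Electrochemiluminescent sandwich ELISA read-out: phospho-specific capture (Ser473 or Thr308), Sulfo-tag anti-total Akt detection, signal proportional to phospho-Akt. Cells treated 60 min at 37° C with compound, DMSO 0.3%. IC50 fitted from five concentrations.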

kinase enzymes [2] = target: T3, kinase enzymes (Homo sapiens, UniProt P42345); test: Enzyme binding assay (KINOMEscan, DiscoveRx), further kinases of Table A; conditions: MTOR_h
T3 construct: purchased DiscoveRx Corporation, San Diego (contract service, KINOMEscan)
Method in brief: as §1

kinase enzymes [3] = target: T4, kinase enzymes (Homo sapiens, UniProt P48736); test: as above; conditions: PIK3Cγ_h
T4 construct: purchased DiscoveRx Corporation, San Diego (contract service, KINOMEscan)
T4 sequence (P48736 whole entry): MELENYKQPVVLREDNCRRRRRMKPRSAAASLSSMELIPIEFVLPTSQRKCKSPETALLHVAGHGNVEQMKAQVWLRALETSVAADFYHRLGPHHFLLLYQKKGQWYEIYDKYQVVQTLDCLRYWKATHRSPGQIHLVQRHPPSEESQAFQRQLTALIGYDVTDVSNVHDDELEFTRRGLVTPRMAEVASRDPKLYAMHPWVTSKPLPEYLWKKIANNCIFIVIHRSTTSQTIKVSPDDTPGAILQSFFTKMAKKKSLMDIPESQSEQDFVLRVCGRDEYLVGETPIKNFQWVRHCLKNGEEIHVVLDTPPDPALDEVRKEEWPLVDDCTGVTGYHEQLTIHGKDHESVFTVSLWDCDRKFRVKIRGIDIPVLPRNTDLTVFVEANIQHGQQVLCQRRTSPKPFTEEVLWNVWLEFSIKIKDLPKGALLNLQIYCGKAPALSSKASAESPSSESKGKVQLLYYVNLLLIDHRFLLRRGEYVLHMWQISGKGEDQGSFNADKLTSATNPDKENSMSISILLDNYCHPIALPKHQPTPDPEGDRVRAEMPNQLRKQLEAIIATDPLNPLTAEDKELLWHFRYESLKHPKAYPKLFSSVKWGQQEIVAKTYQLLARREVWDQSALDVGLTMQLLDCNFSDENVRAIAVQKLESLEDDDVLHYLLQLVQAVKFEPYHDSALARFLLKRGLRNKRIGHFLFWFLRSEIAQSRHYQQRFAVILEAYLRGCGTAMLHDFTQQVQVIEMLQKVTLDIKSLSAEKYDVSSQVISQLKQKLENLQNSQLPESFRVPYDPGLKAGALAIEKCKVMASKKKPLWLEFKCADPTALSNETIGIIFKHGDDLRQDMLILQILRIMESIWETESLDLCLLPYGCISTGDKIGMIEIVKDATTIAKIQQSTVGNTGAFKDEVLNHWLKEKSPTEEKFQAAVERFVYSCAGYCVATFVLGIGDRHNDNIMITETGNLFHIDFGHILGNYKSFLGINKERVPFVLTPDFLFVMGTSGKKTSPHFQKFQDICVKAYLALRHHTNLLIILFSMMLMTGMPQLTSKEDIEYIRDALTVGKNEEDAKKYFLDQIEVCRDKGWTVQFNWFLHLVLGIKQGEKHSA
Method in brief: as §1

kinase enzymes [4] = target: T5, kinase enzymes (Homo sapiens, UniProt P42336); test: as above; conditions: PIK3Cα_h
T5 construct: purchased DiscoveRx Corporation, San Diego (contract service, KINOMEscan)
T5 sequence (P42336 whole entry): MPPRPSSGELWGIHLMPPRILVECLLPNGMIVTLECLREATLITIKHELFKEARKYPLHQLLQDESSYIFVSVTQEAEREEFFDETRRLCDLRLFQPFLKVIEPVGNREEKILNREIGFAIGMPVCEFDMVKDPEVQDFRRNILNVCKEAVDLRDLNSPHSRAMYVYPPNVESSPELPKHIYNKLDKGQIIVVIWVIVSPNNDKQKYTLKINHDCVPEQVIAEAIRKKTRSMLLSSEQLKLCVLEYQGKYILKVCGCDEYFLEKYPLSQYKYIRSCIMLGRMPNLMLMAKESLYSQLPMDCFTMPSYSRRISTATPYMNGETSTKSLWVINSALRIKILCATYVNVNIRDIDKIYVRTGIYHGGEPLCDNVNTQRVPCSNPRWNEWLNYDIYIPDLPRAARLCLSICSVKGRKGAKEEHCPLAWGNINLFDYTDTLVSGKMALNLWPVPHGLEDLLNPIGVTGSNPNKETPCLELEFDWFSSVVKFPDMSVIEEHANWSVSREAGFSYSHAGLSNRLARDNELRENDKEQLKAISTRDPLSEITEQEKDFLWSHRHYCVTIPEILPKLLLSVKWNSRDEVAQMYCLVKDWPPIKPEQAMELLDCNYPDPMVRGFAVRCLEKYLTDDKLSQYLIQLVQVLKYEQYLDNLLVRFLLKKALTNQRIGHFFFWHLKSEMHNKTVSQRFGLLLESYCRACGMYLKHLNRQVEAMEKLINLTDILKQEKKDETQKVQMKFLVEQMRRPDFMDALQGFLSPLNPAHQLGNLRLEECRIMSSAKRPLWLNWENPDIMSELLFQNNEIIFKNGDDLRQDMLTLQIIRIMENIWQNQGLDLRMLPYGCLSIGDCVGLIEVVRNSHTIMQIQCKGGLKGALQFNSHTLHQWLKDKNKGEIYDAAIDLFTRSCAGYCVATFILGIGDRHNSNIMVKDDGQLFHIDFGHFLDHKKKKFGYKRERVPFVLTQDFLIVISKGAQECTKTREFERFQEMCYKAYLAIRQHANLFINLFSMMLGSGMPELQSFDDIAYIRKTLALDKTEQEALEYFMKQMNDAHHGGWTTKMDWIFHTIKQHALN
Method in brief: as §1

[5] = system: Akt phosphorylated at Thr308 in PC-3 cells; test: Cellular assay: phosphorylation of Akt at Thr308 in PC-3 cells (MSD ELISA); type: cell-based; conditions: PC-3 cells, 60 min compound incubation, MSD ELISA, read-out: IC50 pAkt_Thr308
Method in brief: as §2

Structure (SMILES) | melting point [°C] | Kd (PI3Kδ) [nM] | Kd (PI3Kβ) [nM] | IC50 ([1]; Homo sapiens, PC-3, 1 h) [nM] | Kd (kinase enzymes [2]) [nM] | Kd (kinase enzymes [3]) [nM] | Kd (kinase enzymes [4]) [nM] | IC50 ([5]; Homo sapiens, PC-3, 1 h) [nM] | IC50 [1] [nM] | IC50 [5] [nM]
CC(Nc1ccc(F)c(F)c1)c1cc(C(=O)N2CCN3CCC[C@H]3C2)cc2ncc(N3CCOCC3)nc12 (single isomer, unassigned) [Compound 287b] | 95 | 2950 | 27 | > 513 | > 30200 | > 30200 | 9330 | 417 | – | –
CC(Nc1cc(C(=O)N(C)C)cc2ncc(N3CCOCC3)nc12)c1cc(F)cc(F)c1 (centres unmarked) [Compound 402] | 80 | 4070 | 44 | > 513 | > 30200 | > 30200 | 4470 | > 513 | – | –
CC(Nc1cccc(F)c1)c1cc(C(=O)NC[C@@H](C)O)cc2ncc(N3CCOCC3)nc12 (single isomer, unassigned) [Compound 338b] | 90.8 | > 30200 | 851 | – | 20000 | 2340 | 22900 | – | > 513 | > 513
CC(Nc1ccc(F)c(F)c1)c1cc(C(=O)N2C[C@@H](C)N[C@@H](C)C2)cc2ncc(N3CCOCC3)nc12 (single isomer, unassigned) [Compound 357a] | 116 | 16200 | 3310 | > 513 | > 30200 | > 30200 | 22900 | > 513 | – | –
COCCNC(=O)c1cc(C(C)Nc2cc(F)cc(F)c2)c2nc(N3CCOCC3)cnc2c1 (single isomer, unassigned) [Compound 204] | 80 | > 30200 | 1070 | – | > 30200 | 14500 | > 30200 | – | > 513 | > 513
Cc1c(F)cccc1CN(C)c1cc(C(=O)N2CC3(C2)CS(=O)(=O)C3)cc2ncc(N3CCOCC3)nc12 [Compound 308] | 195 | 7240 | 324 | > 513 | > 30200 | > 30200 | > 30200 | > 513 | – | –
Cc1cc(C2CCCN2c2cc(F)cc(F)c2)c2nc(N3CCOCC3)cnc2c1 (single isomer, unassigned) [Compound 107] | 80 to 90 | 23400 | 363 | – | > 30200 | > 30200 | > 30200 | – | > 513 | > 513

Now those with a lower Kd (PI3Kδ), led by results:

melting point [°C] | Kd (PI3Kδ) [nM] | Kd (PI3Kβ) [nM] | IC50 ([1]; Homo sapiens, PC-3, 1 h) [nM] | Kd (kinase enzymes [2]) [nM] | Kd (kinase enzymes [3]) [nM] | Kd (kinase enzymes [4]) [nM] | IC50 ([5]; Homo sapiens, PC-3, 1 h) [nM] | IC50 [1] [nM] | IC50 [5] [nM] | Structure (SMILES)
80 | 813 | 8 | 490 | > 30200 | 8710 | 3630 | 66 | – | – | CC(Oc1ccccc1)c1cc(C(=O)N(C)C)cc2ncc(N3CCOCC3)nc12 (centres unmarked) [Compound 151]
80 | 617 | 18 | 195 | > 30200 | 20900 | 2460 | 166 | – | – | C[C@H](CO)NCc1ccc(F)cc1N1CCCC1c1cc(C(=O)N(C)C)cc2ncc(N3CCOCC3)nc12 (mixture of isomers) [Compound 67]
75 | 288 | 2 | – | > 30200 | 8320 | 2140 | – | > 102 | 56 | CNCCNC(=O)c1cc(C(C)Oc2ccc(F)c(F)c2)c2nc(N3CCOCC3)cnc2c1 (single isomer, unassigned) [Compound 344a]
118 | 174 | 1 | 18 | > 30200 | 4680 | 832 | 8 | – | – | CC(Nc1cccc(F)c1)c1cc(C(=O)N2CC[C@@H](O)C2)cc2ncc(N3CCOCC3)nc12 (single isomer, unassigned) [Compound 321a]
132 | 141 | 0.3 | – | > 30200 | 5890 | 2460 | – | 32 | 17 | CC(Nc1ccc(F)c(F)c1)c1cc(C(=O)N[C@H]2CCNC2)cc2ncc(N3CCOCC3)nc12 (single isomer, unassigned) [Compound 374a]
80 | 58 | 1 | 13 | 15100 | 1290 | 224 | 6 | – | – | O=C(c1cc(C2CCCN2c2cc(F)cc(F)c2)c2nc(N3CCOCC3)cnc2c1)N1CCC[C@H]1CO (mixture of isomers) [Compound 64]
> 260 | 51 | 1 | 52 | 2040 | 234 | 25 | 32 | – | – | O=C(O)c1cc(C2CCCN2c2cc(F)cc(F)c2)c2nc(N3CCOCC3)cnc2c1 (centres unmarked) [Compound 62]
160 | 30 | 0.4 | < 0.8 | > 30200 | 933 | 50 | 3 | – | – | O=C(c1cc(C2CCCN2c2cc(F)cc(F)c2)c2nc(N3CCOCC3)cnc2c1)N1CC2(C1)CS(=O)(=O)C2 (centres unmarked) [Compound 34]
90 | 19 | 0.1 | 7 | > 30200 | 251 | 50 | 7 | – | – | OC1CN(Cc2cc(C3CCCN3c3cc(F)cc(F)c3)c3nc(N4CCOCC4)cnc3c2)C1 (centres unmarked) [Compound 76]
